# Source: patent EP0455560A2, “Use of N-dichloroacetyl lysogangliosides for the selective modulation of the expression and function of CD4 determinants on the cell surface” (FIDIA S.p.A., priority 1990, dated 1991)
# Columns and labels:
# Assay type in all cases: cell-based
# [1] = molecular target: T1, CD₄ (Homo sapiens, UniProt P01730); test: Percentage of CD4 still expressed in Molt 3 cells after incubation in the presence of BMS serum substitute; set-up: percentage of CD₄ still expressed in the Molt 3 cells after incubation; endogenous in cells; host or cells: Molt 3 cells; settings: 60 minutes, 37°C, 89% without agent
# Method: Molt 3 cells (5x10⁶) were incubated with various concentrations of N-dichloroacetyl lyso GM₁ (from 1 µg/ml to 250 µg/ml) for 60 minutes at 37°C in the presence of BMS (BMS Serum Substitute, Biochrom. Kg. Seromed, Berlin, Germany). After incubation the percentage of CD₄ expressed was shown by a specific Mab for CD₄ (T₄ Coulter Clone, Coulter Electronics, Hialeah, Florida, USA). For a positive control, an experiment-was carried out with monosialoganglioside GM₁ under the same experimental conditions as reported for N-dichloroacetyl lyso GM₁.
# Table 2 reports the percentage of CD₄ still expressed in the Molt 3 cells after incubation with different chemical molecules at different concentrations, as described in Example 1. The CD₄ expressed in the absence of the chemical agents during the experiment was 89%.
# [2] = molecular target: T1, CD₄; test: Mean fluorescence intensity of human lymphocytes stained with anti CD4 Mab after incubation with the compound in the presence of serum; set-up: endogenous in cells; host or cells: human lymphocytes; settings: for Mean fluorescence intensity (% of positive control): anti CD4 Mab, serum, 37°C, one hour
# Method: (§1) Human lymphocytes were incubated at various concentrations of the modified ganglioside N-dichloroacetyl lyso GM₁. The cells were stained using monoclonal antibodies (Mab) specific for CD₄, CD₈, CD₃ (T₄, T₈, T₃ Coulter Clone, Coulter Electronics, Hialeah, Florida, USA) and OKT₄ (Ortho Diagnostics, Raritan, New Jersey, USA), these monoclonal antibodies being coupled to fluorescein. By measuring the mean fluorescence intensity (MFI) of the labelled cell population at each concentration of N-dichloroacetyl lyso GM₁, it was possible to quantify how much N-dichloroacetyl lyso GM₁ is necessary to produce 50% inhibition of the fluorescence (I₅₀). The I₅₀ value for […] lymphocytes was 5 µM. The concentration of the composition of N-dichloroacetyl lyso GM₁ at which the fluorescence intensity measurement was 0% was resolved experimentally.
# (§2) Specifically, human cells were incubated with saline solution at various concentrations of N-dichloroacetyl lyso GM₁ in the presence of serum at 37°C for one hour. The cells were then washed, incubated with suitable monoclonal antibodies, fixed with 1% formalin and analyzed by MFI after excitation at […] laser length.
# [3] = system: CD₃; test: Mean fluorescence intensity of human lymphocytes stained with anti CD3 Mab after incubation with the compound in the presence of serum; settings: 37°C, one hour
# Method: as §1, §2
# [4] = molecular target: T1, CD₄; test: Percentage of CD4 still expressed in Molt 3 cells after incubation in the presence of fetal calf serum; set-up: percentage of CD₄ still expressed in the Molt 3 cells after incubation; endogenous in cells; host or cells: Molt 3 cells; settings: for percentage of CD₄ still expressed in the Molt 3 cells: 60 minutes, 37°C, 84% without agent; for effect of serum concentration on the modulating action on the CD₄ receptor: conclusion in words from Table 3, FCS 1% to 5%
# Method: Molt 3 cells (5x10⁶) were incubated with different concentrations of N-dichloroacetyl lyso GM₁ (from 1 µg/ml to 125 µg/ml) for 60 minutes at 37°C in the presence of different concentrations of fetal calf serum (FCS) (from 1% to 5%). After incubation the percentage of CD₄ expressed was shown by a specific Mab for CD₄ (T₄ Coulter Clone, Coulter Electronics, Hialeah, Florida, USA).
# As a positive control, an experiment with the monosialoganglioside GM₁ was carried out under the same experimental conditions as reported for N-dichloroacetyl lyso GM₁.
# The CD₄ expressed in the absence of the chemical agents during the experiment was 84%.
percentage of CD₄ still expressed in the Molt 3 cells ([1]; 1μg/ml) [%],percentage of CD₄ still expressed in the Molt 3 cells ([1]; 5μg/ml) [%],percentage of CD₄ still expressed in the Molt 3 cells ([1]; 25μg/ml) [%],percentage of CD₄ still expressed in the Molt 3 cells ([1]; 125μg/ml) [%],"percentage of CD₄ still expressed in the Molt 3 cells ([4]; 1μg/ml, FCS 1%) [%]","percentage of CD₄ still expressed in the Molt 3 cells ([4]; 1μg/ml, FCS 2%) [%]","percentage of CD₄ still expressed in the Molt 3 cells ([4]; 1μg/ml, FCS 5%) [%]","percentage of CD₄ still expressed in the Molt 3 cells ([4]; 25μg/ml, FCS 1%) [%]","percentage of CD₄ still expressed in the Molt 3 cells ([4]; 25μg/ml, FCS 2%) [%]","percentage of CD₄ still expressed in the Molt 3 cells ([4]; 25μg/ml, FCS 5%) [%]","percentage of CD₄ still expressed in the Molt 3 cells ([4]; 75μg/ml, FCS 1%) [%]","percentage of CD₄ still expressed in the Molt 3 cells ([4]; 75μg/ml, FCS 2%) [%]","percentage of CD₄ still expressed in the Molt 3 cells ([4]; 75μg/ml, FCS 5%) [%]","percentage of CD₄ still expressed in the Molt 3 cells ([4]; 125μg/ml, FCS 1%) [%]","percentage of CD₄ still expressed in the Molt 3 cells ([4]; 125μg/ml, FCS 2%) [%]","percentage of CD₄ still expressed in the Molt 3 cells ([4]; 125μg/ml, FCS 5%) [%]",Substance,effect of serum concentration on the modulating action on the CD₄ receptor [4],also measured
75,74,47,13,70,73,77,44,55,64,47,50,55,30,49,50,N-dichloroacetyl lyso GM₁ [N-dichloroacetyl lyso GM1],increased serum concentrations do not alter its modulating action on the CD₄ receptor,"Mean fluorescence intensity (% of positive control) ([2]; 2 μg/ml): 100 % of positive control; Mean fluorescence intensity (% of positive control) ([2]; 5 μg/ml): 60 % of positive control; Mean fluorescence intensity (% of positive control) ([2]; 10 μg/ml): 28 % of positive control; Mean fluorescence intensity (% of positive control) ([2]; 25 μg/ml): 0 % of positive control; Mean fluorescence intensity (% of positive control) ([2]; 50 μg/ml): 0 % of positive control; selectivity of modulation, CD₄ receptor versus CD₃ receptor ([2]; conclusion in words from Table 1, 2 to 50 μg/ml): selectively modulates the CD₄ receptor without altering the CD₃ receptor; IC50 ([2]; minor lymphocytes, fluorescein-coupled Mab, MFI, read-out: 50% inhibition of the fluorescence (I₅₀)): 5 µM; Mean fluorescence intensity (% of positive control) ([3]; 2 μg/ml): 100 % of positive control; Mean fluorescence intensity (% of positive control) ([3]; 5 μg/ml, 60 min): 100 % of positive control; Mean fluorescence intensity (% of positive control) ([3]; 10 μg/ml, 60 min): 100 % of positive control; Mean fluorescence intensity (% of positive control) ([3]; 25 μg/ml, 60 min): 100 % of positive control; Mean fluorescence intensity (% of positive control) ([3]; 50 μg/ml): 100 % of positive control"
88,81,52,0,82,84,85,80,83,81,50,80,83,10,25,72,"monosialoganglioside GM₁ [GM1, reference compound]",this modulating action disappears in the presence of serum,
